From US20230338337A1, “BIOMARKERS FOR CANCER THERAPY USING MDM2 ANTAGONISTS” (OTSUKA PHARMACEUTICAL CO., LTD., priority 2019, published 2023)
Like-named read-outs stand apart in the source and are kept apart here.

Experiments:
SN40R2 = test: Protocol B: CellTiter-Glo cell viability assay; conditions: read-out: SN40R2 (Protocol B) % inhibition at 10, Protocol B
SJSA-1 = test: Protocol B: CellTiter-Glo cell viability assay
tumour growth = conditions: cited from earlier work
[1] = tested on: SN40R2 (p53 mutated, MDM2 amplified osteosarcoma); test: Protocol A: SRB growth inhibition assay; conditions: read-out: SN40R2 IC50 (μM) (Protocol A)
cancer cell lines = conditions: cited from earlier work
[2] = tested on: multiple myeloma (MM) cells; conditions: in vitro and ex vivo; cited from earlier work
[3] = tested on: SJSA-1 (p53 wild-type, MDM2 amplified osteosarcoma); test: Protocol A: SRB growth inhibition assay; conditions: read-out: SJSA-1 IC50 (μM) (Protocol A)
[4] = molecular target: MDM2-p53 interaction (in vitro translated MDM2) (Homo sapiens (Human), UniProt Q00987); test: MDM2-p53 interaction 96-well plate binding assay (ELISA); conditions: at 0.0010 μM
human leukaemia models = conditions: mice; by inducing MDM2 degradation; cited from earlier work
OCI-AML3 cells = test: Induction of apoptosis by cleaved caspase-3 cytometry; format: cell-based; conditions: 0.1 μM COMPOUND 1 with 1 μM ASTX660 and 1 ng/ml TNF-alpha, 72 h
[5] = read-out: SJSA1 IC50 (μM) (Protocol B), Protocol B
[6] = Homo sapiens, SJSA-1, read-out: SJSA1 IC50 (μM) (Protocol B), Protocol B

Chain of MDM2-p53 interaction (in vitro translated MDM2) (Q00987 whole entry): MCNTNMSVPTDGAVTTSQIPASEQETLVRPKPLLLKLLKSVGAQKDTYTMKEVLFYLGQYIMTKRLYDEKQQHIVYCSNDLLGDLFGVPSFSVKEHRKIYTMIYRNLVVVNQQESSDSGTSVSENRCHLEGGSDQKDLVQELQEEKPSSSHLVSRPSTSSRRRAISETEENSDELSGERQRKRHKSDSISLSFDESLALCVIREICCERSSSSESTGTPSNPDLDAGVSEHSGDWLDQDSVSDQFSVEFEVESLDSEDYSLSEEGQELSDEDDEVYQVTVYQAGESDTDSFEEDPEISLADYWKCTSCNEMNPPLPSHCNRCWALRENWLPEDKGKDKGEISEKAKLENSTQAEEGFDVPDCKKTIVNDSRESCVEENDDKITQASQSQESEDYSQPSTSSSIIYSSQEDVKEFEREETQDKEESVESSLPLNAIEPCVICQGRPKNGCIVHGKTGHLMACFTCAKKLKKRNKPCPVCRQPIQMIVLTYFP

Work on `CCC(O)(CN1CCN(C)CC1)c1cc(F)c2c(c1)C(=O)N(Cc1ncc(Cl)cn1)[C@@]2(O[C@H]1CCOC1)c1ccc(Cl)cc1` (stereo partly drawn) [Example 522, (3R)-3-(4-chlorophenyl)-2-[(5-chloropyrimidin-2-yl)methyl]-4-fluoro-6-[2-hydroxy-1-(4-methylpiperazin-1-yl)butan-2-yl]-3-[(3S)-oxolan-3-yloxy]-2,3-dihydro-1H-isoindol-1-one] yielded an inhibition at 10 µM (SN40R2) of 24% and an IC50 (SJSA-1; [5]) of 0.048 µM.

In the case of `COc1cc(C(N)=O)ccc1NC(=O)[C@@H]1N[C@@H](CC(C)(C)C)C2(C(=O)Nc3cc(Cl)ccc32)[C@H]1c1cccc(Cl)c1F` (some centres unmarked) [RO-8994], the tumour growth inhibition (tumour growth) is given as “inhibit tumour growth”.

In the case of `CCC(O)(c1cc(F)c2c(c1)C(=O)N(Cc1ccc(C#N)cn1)[C@@]2(O[C@H]1CCOC1)c1ccc(Cl)cc1)C1(F)CCOCC1` (stereo partly drawn) [Example 446, 6-{[(1R)-1-(4-chlorophenyl)-7-fluoro-5-[1-(4-fluorooxan-4-yl)-1-hydroxypropyl]-3-oxo-1-[(3S)-oxolan-3-yloxy]-2,3-dihydro-1H-isoindol-2-yl]methyl}pyridine-3-carbonitrile], the IC50 [1] is reported as 29 µM and the IC50 (SJSA-1; [5]) is reported as 0.023 µM.

In the case of `CC(C)(C)C[C@@H]1N[C@@H](C(=O)N[C@H]2CC[C@H](O)CC2)[C@H](c2cccc(Cl)c2F)[C@]12C(=O)Nc1cc(Cl)ccc12` [MI-773], the cell growth inhibition (cancer cell lines) is listed as “potently inhibits cell growth”.

Molecule `CC(O)(c1cc(F)c2c(c1)C(=O)N(Cc1ncc(Cl)cn1)[C@@]2(OCC1(CO)CC1)c1ccc(Cl)cc1)[C@H]1CC[C@H](O)CC1` (stereo partly drawn) [Example 401, (3R)-3-(4-chlorophenyl)-2-[(5-chloropyrimidin-2-yl)methyl]-4-fluoro-6-{1-hydroxy-1-[trans-4-hydroxycyclohexyl]ethyl}-3-{[1-(hydroxymethyl)cyclopropyl]methoxy}-2,3-dihydro-1H-isoindol-1-one] has an inhibition at 10 µM (SN40R2) of 6% and an IC50 (SJSA-1; [5]) of 0.0098 µM.

For `c1ccc2c(CCNc3ccc(Nc4ccncc4)cc3)c[nH]c2c1` [JNJ 26854165], the “activity against multiple myeloma (MM) cells” value [2] is listed as “potent activity”.

In the case of “6-{[(1R)-1-(4-chlorophenyl)-7-fluoro-5-{1-hydroxy-1-[trans-4-hydroxycyclohexyl]propyl}-3-oxo-1-[cis-3-hydroxycyclobutoxy]-2,3-dihydro-1H-isoindol-2-yl]methyl}pyridine-3-carbonitrile [Example 518]”, the IC50 [3] is reported as 0.058 µM, the IC50 (SJSA-1; [5]) is reported as 0.065 µM and the “MDM2 % inhibition at 0.0010” value [4] is reported as 79%@0.0010.

Work on `CCC(O)(c1cc(F)c2c(c1)C(=O)N(Cc1ccc(C#N)cn1)[C@@]2(OCC1(F)COC1)c1ccc(Cl)cc1)c1cn(C)cn1` (stereo partly drawn) [Example 435, 6-{[(1R)-1-(4-chlorophenyl)-7-fluoro-1-[(3-fluorooxetan-3-yl)methoxy]-5-[1-hydroxy-1-(1-methyl-1H-imidazol-4-yl)propyl]-3-oxo-2,3-dihydro-1H-isoindol-2-yl]methyl}pyridine-3-carbonitrile] yielded an inhibition at 10 µM (SN40R2) of 0% and an IC50 (SJSA-1; [6]) of 0.015 µM.

With “(3R)-3-(4-chlorophenyl)-2-[(5-chloropyrimidin-2-yl)methyl]-4-fluoro-6-[1-hydroxy-1-(1-methyl-1H-imidazol-4-yl)propyl]-3-{[1-(hydroxymethyl)cyclopropyl]methoxy}-2,3-dihydro-1H-isoindol-1-one [Example 477]” the IC50 [3] was 0.013 µM, the IC50 (SJSA-1; [5]) was 0.0091 µM and the “MDM2 % inhibition at 0.0010” value [4] was 86%@0.0010.

`CCC(O)(c1cc(F)c2c(c1)C(=O)N(Cc1ncc(Cl)cc1O)[C@@]2(OCCO)c1ccc(Cl)cc1)c1cn(C)cn1` (stereo partly drawn) [Example 443, (3R)-2-[(5-chloro-3-hydroxypyridin-2-yl)methyl]-3-(4-chlorophenyl)-4-fluoro-6-[1-hydroxy-1-(1-methyl-1H-imidazol-4-yl)propyl]-3-(2-hydroxyethoxy)-2,3-dihydro-1H-isoindol-1-one] showed an inhibition at 10 µM (SN40R2) of 3%, an IC50 [1] of 38 µM and an IC50 (SJSA-1; [6]) of 0.093 µM.

In the case of “2-{[(1R)-1-(4-chlorophenyl)-1-[(1-cyanocyclopropyl)methoxy]-7-fluoro-5-[1-hydroxy-1-(1-methyl-1H-imidazol-4-yl)propyl]-3-oxo-2,3-dihydro-1H-isoindol-2-yl]methyl}pyrimidine-5-carbonitrile [Example 462]”, the IC50 [3] is reported as 0.073 µM, the IC50 (SJSA-1; [5]) is reported as 0.047 µM and the “MDM2 % inhibition at 0.0010” value [4] is reported as 80%@0.0010.

With `CCC(O)(c1cc(F)c2c(c1)C(=O)N(Cc1ccc(C#N)cn1)[C@@]2(O[C@H]1CCOC1)c1ccc(Cl)cc1)C1(F)CCOCC1` (stereo partly drawn) [Example 445, 6-{[(1R)-1-(4-chlorophenyl)-7-fluoro-5-[1-(4-fluorooxan-4-yl)-1-hydroxypropyl]-3-oxo-1-[(3S)-oxolan-3-yloxy]-2,3-dihydro-1H-isoindol-2-yl]methyl}pyridine-3-carbonitrile] the inhibition at 10 µM (SN40R2) was 16%.

In the case of `O=C(O)C(F)(F)F.O=C1CCC(N2Cc3c(C#CCCCNC(=O)c4ccc(NC(=O)[C@@H]5NC6(CCCCC6)[C@@]6(C(=O)Nc7cc(Cl)ccc76)[C@H]5c5cccc(Cl)c5F)cc4)cccc3C2=O)C(=O)N1` (some centres unmarked) [LE-004], the “growth inhibition in human leukaemia models” value (human leukaemia models) is listed as “efficiently inhibited growth”.

In the case of “(3R)-3-(4-chlorophenyl)-2-[(5-chloropyrimidin-2-yl)methyl]-4-fluoro-6-[1-[4-fluoro-1-(oxetan-3-yl)piperidin-4-yl]-1-hydroxypropyl]-3-methoxy-2,3-dihydro-1H-isoindol-1-one [Example 552]”, the IC50 [3] is reported as 0.028 µM, the IC50 (SJSA-1; [5]) is reported as 0.02 µM and the “MDM2 % inhibition at 0.0010” value [4] is reported as 79%@0.0010.

For `C[C@@H]1CN(CC(=O)N2CC(C)(C)c3nc(CO)c(Cc4ccc(F)cc4)cc32)[C@@H](CN2CCOC[C@H]2C)CN1` [ASTX660, 1-{6-[(4-fluorophenyl)methyl]-5-(hydroxymethyl)-3,3-dimethyl-1H,2H,3H-pyrrolo[3,2-b]pyridin-1-yl}-2-[(2R,5R)-5-methyl-2-{[(3R)-3-methylmorpholin-4-yl]methyl}piperazin-1-yl]ethan-1-one, reference compound], the “level of apoptosis (cleaved caspase-3)” value (OCI-AML3 cells) was “sensitises the OCI-AML3 line to apoptosis induction by COMPOUND 1”.
